The source of these data is ChEMBL document CHEMBL5136976, “A Perspective on Medicinal Chemistry Approaches for Targeting Pyruvate Kinase M2” (J Med Chem, 2022).

Pyruvate kinase PKM (Homo sapiens), P14618, sequence (P14618 whole entry): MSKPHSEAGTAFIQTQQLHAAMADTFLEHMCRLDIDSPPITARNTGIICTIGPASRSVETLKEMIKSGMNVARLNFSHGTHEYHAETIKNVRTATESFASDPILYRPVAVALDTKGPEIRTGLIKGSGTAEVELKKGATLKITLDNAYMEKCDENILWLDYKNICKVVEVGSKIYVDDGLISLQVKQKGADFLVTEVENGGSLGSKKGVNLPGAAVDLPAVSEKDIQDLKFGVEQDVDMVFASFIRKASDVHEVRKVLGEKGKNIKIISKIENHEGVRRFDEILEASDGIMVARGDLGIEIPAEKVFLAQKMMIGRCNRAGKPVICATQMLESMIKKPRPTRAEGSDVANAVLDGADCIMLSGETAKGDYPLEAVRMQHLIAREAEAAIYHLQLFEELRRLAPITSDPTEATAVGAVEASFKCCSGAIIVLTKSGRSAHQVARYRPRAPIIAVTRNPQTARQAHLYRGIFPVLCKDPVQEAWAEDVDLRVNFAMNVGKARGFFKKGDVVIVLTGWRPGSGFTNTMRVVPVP

The target of one series is Pyruvate kinase PKM (Homo sapiens) (UniProt P14618). Nature of the series: Inhibition of PKM2 (unknown origin). More on the design: concentration or dose not given beside the values. The conditions noted are these: concentration not given here.
Pyruvate kinase PKM (Homo sapiens), sequence (P14618 2-531 limits assumed): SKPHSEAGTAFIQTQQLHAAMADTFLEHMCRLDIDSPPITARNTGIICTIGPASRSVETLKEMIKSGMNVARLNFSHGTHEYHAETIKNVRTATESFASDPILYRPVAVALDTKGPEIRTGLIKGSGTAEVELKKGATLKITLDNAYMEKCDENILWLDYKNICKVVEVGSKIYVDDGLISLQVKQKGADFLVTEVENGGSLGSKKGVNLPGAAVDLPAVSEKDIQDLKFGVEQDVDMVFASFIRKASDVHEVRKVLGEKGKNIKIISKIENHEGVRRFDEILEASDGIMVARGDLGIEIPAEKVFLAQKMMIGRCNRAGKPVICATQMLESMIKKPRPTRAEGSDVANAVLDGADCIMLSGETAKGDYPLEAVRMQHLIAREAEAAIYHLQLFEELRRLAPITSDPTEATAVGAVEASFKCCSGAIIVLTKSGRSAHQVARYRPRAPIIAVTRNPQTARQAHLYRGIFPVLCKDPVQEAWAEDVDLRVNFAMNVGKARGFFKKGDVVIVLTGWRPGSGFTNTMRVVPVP
In general, inhibition refers to how much of the control response was suppressed. In turn, `CC(C)[C@H](N)C(=O)O` returned an inhibition of 65%.

Regarding `N[C@@H](CS)C(=O)O`, the inhibition amounted to 20%.

`CC[C@H](C)[C@H](N)C(=O)O` gave an inhibition of 20%.

Consider `N[C@@H](Cc1c[nH]c2ccccc12)C(=O)O`, for which the inhibition came out at 65%.

`N[C@@H](Cc1ccccc1)C(=O)O` showed an inhibition of 100%.

In the case of `C[C@@H](O)[C@H](N)C(=O)O`, the inhibition stood at 20%.

`C[C@H](N)C(=O)O` displayed an inhibition of 100%.

`O=C(O)[C@@H]1CCCN1` displayed an inhibition of 65%.

`CSCC[C@H](N)C(=O)O` showed an inhibition of 65%.

For a further series, the system named is CCc1nnc(SCc2ccccc2F)c2cc3sc(C)cc3n12. Briefly: Binding affinity to PKM2 (unknown origin) assessed as Michaelis-constant. The settings on record: Homo sapiens; filed as activator.
The Km is the substrate concentration at which the rate is half of its maximum. Turning to “Pyruvate kinase PKM (Homo sapiens), P14618”, the Km stood at 480 µM.

The next series deals with Pyruvate kinase PKM (Homo sapiens) (UniProt P14618). Nature of the series: Inhibition of recombinant PKM2 (unknown origin) Asp178, Asp177, Ser362, Lys367, Hie78, Ser205, Gly128, Thr129, Tyr83, Asn75, Ile51 residues at 40 uM relative to control.
Details: not given
As to `O=C(O[C@@H]1Cc2c(O)cc(O)cc2O[C@@H]1c1cc(O)c(O)c(O)c1)c1cc(O)c(O)c(O)c1`, the inhibition amounted to 49%.
